Data published in article PMC5152921, “Evolutionary and Functional Diversification of the Vitamin D Receptor-Lithocholic Acid Partnership” (PLoS ONE, 2016).

Key:
[1] = molecular target: T1, Lamprey VDR (Petromyzon marinus, UniProt Q7ZZY9); test: Competitive ligand binding assay ([3H]-1,25D3 displacement); conditions: lysate with VDR and human RXRWT; 4 nM [3H]-1,25D3; 18 hours at 4°C; Cheng-Prusoff; mean ± SEM
T1 sequence (Q7ZZY9 1-406): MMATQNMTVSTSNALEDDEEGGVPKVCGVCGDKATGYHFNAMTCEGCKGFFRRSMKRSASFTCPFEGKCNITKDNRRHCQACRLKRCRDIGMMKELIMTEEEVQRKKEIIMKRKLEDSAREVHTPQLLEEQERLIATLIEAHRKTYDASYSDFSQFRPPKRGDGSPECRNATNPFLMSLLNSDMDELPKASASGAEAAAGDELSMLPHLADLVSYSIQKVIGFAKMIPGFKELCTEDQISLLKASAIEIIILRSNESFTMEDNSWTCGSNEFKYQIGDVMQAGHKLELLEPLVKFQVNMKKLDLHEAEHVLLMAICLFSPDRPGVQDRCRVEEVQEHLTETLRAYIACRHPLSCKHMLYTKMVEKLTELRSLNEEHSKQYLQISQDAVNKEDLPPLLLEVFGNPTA
T1 sequence (P19793 1-462 partner): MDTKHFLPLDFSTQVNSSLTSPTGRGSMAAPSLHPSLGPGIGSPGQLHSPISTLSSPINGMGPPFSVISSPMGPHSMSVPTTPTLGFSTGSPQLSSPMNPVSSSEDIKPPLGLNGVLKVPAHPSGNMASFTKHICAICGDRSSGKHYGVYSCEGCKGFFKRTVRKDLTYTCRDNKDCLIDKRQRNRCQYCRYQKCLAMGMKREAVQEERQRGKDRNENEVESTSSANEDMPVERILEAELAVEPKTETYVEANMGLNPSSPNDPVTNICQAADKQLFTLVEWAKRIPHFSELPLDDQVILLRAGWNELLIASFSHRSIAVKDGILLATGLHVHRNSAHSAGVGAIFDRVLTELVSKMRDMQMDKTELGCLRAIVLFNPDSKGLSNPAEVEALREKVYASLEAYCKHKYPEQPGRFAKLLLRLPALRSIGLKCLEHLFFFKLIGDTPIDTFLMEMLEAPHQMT
Protocol: (§1) Recombinant VDR and human RXRWT lysates were prepared from transfected COS7 cells (American Type Culture Collection #CRL-1651) as described in detail previously. Lysates were diluted 10-fold in ice-cold assay buffer (10 mM Tris HCl, 150 mM KCl, 1 mM EDTA, 0.3 mM ZnCl2, 5 mM DTT, and 1x protease inhibitor cocktail (100 μM AEBSF, 80 nM aprotinin, 5 μM bestatin, 1.5 μM E-64 (for cysteine proteases), 2 μM leupeptin, 1 μM pepstatin A), pH 7.5). […] Reactions were shaken to mix and incubated for 18 hours at 4°C. Bound and free ligand were separated with the addition of 80 μL of ice-cold separation buffer (2.5% (w/v) activated charcoal, 0.5% (w/v) dextran, 100 mM Na2HPO4, 39 mM NaH2PO4, 150 mM NaCl, 15 mM NaN3, 10% gelatin, pH 7.0), and incubated at 4°C for 15 minutes with shaking every 5 minutes. Reactions were centrifuged at 5,000 x g for 5 minutes at 4°C, and 200 μL of the supernatant containing the VDR-bound ligands was removed for scintillation counting.
(§2) Total binding was determined using lysate from cells transfected with VDR, and nonspecific binding was determined using lysate from cells transfected with the empty pSG5 vector. Specific binding was determined by subtracting non-specific binding counts from the total binding counts.

[2] = molecular target: T2, Zebrafish VDRα (Danio rerio, UniProt Q9PTN2); test: as above; conditions: lysate with VDR and human RXRWT; 4 nM [3H]-1,25D3; 18 hours at 4°C; Cheng-Prusoff; mean ± SEM
T2 construct: 89.7 ng/well of full-length pSG5-VDR was co-transfected; expressed in transfected cells; host or cells: COS7
T2 sequence (Q9PTN2 1-453): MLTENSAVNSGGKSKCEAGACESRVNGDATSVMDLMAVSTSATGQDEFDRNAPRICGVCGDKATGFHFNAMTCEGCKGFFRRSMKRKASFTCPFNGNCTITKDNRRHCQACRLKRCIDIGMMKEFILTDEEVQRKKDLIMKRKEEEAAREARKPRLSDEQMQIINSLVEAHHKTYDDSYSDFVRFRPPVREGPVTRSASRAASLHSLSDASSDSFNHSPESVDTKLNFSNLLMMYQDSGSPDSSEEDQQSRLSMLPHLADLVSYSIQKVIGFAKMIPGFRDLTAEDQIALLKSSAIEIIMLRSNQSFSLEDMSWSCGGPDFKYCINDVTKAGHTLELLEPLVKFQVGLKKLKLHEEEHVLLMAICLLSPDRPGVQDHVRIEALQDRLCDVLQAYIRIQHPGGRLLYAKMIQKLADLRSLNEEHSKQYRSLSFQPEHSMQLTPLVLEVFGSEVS
T2 sequence (P19793 1-462 partner): T1 sequence (P19793 1-462 partner)
Protocol: as §1, §2

[3] = molecular target: Medaka VDRα (Oryzias latipes, UniProt B2CCA0); test: as above; conditions: lysate with VDR and human RXRWT; 4 nM [3H]-1,25D3; 18 hours at 4°C; Cheng-Prusoff; mean ± SEM
Chain of Medaka VDRα (B2CCA0 entry or part of it, one chain of several): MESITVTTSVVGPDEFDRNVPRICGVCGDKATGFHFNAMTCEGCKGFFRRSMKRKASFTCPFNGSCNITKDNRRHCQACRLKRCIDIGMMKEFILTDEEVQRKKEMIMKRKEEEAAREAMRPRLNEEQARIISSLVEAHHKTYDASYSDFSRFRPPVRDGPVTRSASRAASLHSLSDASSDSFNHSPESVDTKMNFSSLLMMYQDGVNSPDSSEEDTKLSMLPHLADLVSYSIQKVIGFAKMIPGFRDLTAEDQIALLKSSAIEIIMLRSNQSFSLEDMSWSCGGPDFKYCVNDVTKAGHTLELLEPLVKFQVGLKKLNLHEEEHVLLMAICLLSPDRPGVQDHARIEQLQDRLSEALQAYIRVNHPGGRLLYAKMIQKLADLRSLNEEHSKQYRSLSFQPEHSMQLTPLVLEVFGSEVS
Protocol: as §1, §2

[4] = molecular target: T1, Lamprey VDR; test: Transient transactivation assay (XREM-Luc, HepG2); format: cell-based; conditions: 100 μM LCA
Protocol: HepG2 cells (American Type Culture Collection #HB-8065) were cultured in T75 flasks with vented caps (Corning Life Sciences, Corning, NY) using Minimum Essential Medium (MEM) with phenol red supplemented with 10% fetal bovine serum, 1 mM sodium pyruvate, and 1X MEM non-essential amino acids. Cells were maintained following standard protocols in a 5% CO2 incubator set at 37°C, and split when 80–90% confluent.
For the transient transactivation assays, HepG2 cells were seeded in 96-well tissue culture plates at a density of 2.5x10^4 cells per well in complete phenol red-free MEM, and allowed to recover overnight. Transfections were performed the following day using Lipofectamine 2000 (Life Technologies, Grand Island, NY) as described previously. For functional comparisons, 89.7 ng/well of full-length pSG5-VDR was co-transfected with 19.2 ng/well human XREM-Luc reporter and 4.5 ng/well of pRL-CMV as an internal luciferase control. Coregulator studies included the addition of 18.3 ng/well of human coregulators (pCDNA-RXRWT, pCDNA-RXRAF2, pSG5-SRC1, pSG5-GRIP1 or pSG5-ACTR) where indicated. […] Controls include 120 nM 1,25D3 as a positive control, and ethanol as a vehicle control. Twenty-four hours post-exposure cells were tested for luciferase activity using the Dual-Glo Luciferase Assay System (Promega Corporation, Madison, WI) according to the manufacturer’s protocols. Luciferase data were first normalized to the pRL-CMV internal luciferase control. […] To calculate the impact of coregulators on VDR transactivation, VDR response in the presence of coregulators was normalized to VDR alone. All experiments were repeated 3 times and conducted as groups of 4 replicate wells. VDR response in the absence of coregulators was analyzed using a 1-way ANOVA followed by Dunnett’s multiple comparisons test. To examine the effects of different coregulators on VDR activation, data were analyzed using a 2-way ANOVA followed by Bonferroni’s multiple comparisons test in GraphPad Prism (GraphPad Inc, San Diego, CA).

Work on `C[C@H](CCC(=O)O)[C@H]1CC[C@H]2[C@@H]3CC[C@@H]4C[C@H](O)CC[C@]4(C)[C@H]3CC[C@]12C` [LCA, 5β-cholanic acid-3α-ol] yielded a Ki [1] of 8.7 µM, a Ki [2] of 5.5 ± 1.9 µM and a Ki [3] of 6.5 ± 1.9 µM. For the same molecule, the “Effect of SRC/p160 co-activators on VDR transactivation” value ([4]; any SRC/p160 co-activator, presence or absence of RXRWT) was “No change in transactivation” and the “Effect of exogenous human RXRWT on VDR transactivation” value ([4]; co-transfected human RXRWT, vs VDR alone) was “no effect”.
